Our source for the IC50 values is patent US12319655B2, “RAF kinase inhibitors and methods of use thereof” (Deciphera Pharmaceuticals, LLC, priority 2021, dated 2025).

Assay [1] deals with A-Raf kinase (SEQ. ID No: 1) (Homo sapiens (Human), UniProt P10398, Y301D/Y302D). Nature of the assay: Biochemical Assay for A-Raf (1). The settings on record: Table J. Put shortly:
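A-Raf Y301D/Y302D at 5.55 nM phosphorylates 30.1 nM MEK with 1 mM ATP in pH 7.5 Tris buffer, 1% DMSO. Activity was read continuously as NADH oxidation at 340 nm in a pyruvate kinase/lactate dehydrogenase coupled system for 6 h at 30 °C. Rates from 4–5 h were converted to percent inhibition, and IC50 came from a four-parameter fit.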

Assay [2] addresses B-Raf kinase (SEQ. ID NO: 2) (Homo sapiens (Human), UniProt P15056). As to the kind of experiment: Biochemical Assay for B-Raf (1). The settings on record: Table J. Put shortly:
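Continuous PK/LDH-coupled NADH oxidation assay, A340 read for 6 h at 30° C., with 0.13 nM B-Raf, 30.1 nM MEK substrate and 1 mM ATP in Tris pH 7.5, MgCl2, DTT, detergents, 1% DMSO. Rate taken from 4–5 h window; percent inhibition vs no-compound and known-inhibitor controls; four-parameter fit gives IC50.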

Assay [3] addresses B-Raf (V600E) (SEQ. ID NO: 4) kinase (Homo sapiens (Human), UniProt P15056, V600E). Nature of the assay: Biochemical Assay for B-Raf (V600E) (1). As to conditions: Table J, BRAF V600E. Put shortly: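 Coupled pyruvate kinase/lactate dehydrogenase assay: 0.03 nM B-Raf V600E, 30.1 nM MEK, 1 mM ATP, pH 7.5 Tris/MgCl2 buffer, 1% DMSO. NADH oxidation followed at 340 nm for 6 h at 30 °C; rate from 3–4 h converted to percent inhibition, IC50 by four-parameter fit.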

The next assay has as its system H2405 cells. As to the kind of experiment: H2405 Cell Proliferation Assay (1). The class given is cell-based. The settings on record: Homo sapiens, NCI-H2405. Put shortly:
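Viability was read by resazurin reduction (ex 540 nm, em 600 nm; 5-6 h with 40 μL of 440 μM stock) after 67-72 h compound exposure at 37 °C.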

[4] abbreviates: assay version (1), read-out: ARAF (1) IC50.
The mark [5] stands for this setting: assay version (1), read-out: BRAF (1) IC50.
Where [6] appears, read: assay version (1), read-out: BRAF VE (1) IC50.
Setting [7] is: biochemical assay (1), read-out: ARAF (1).
The mark [8] stands for this setting: biochemical assay (1), read-out: BRAF (1).
The mark [9] stands for this setting: biochemical assay (1), read-out: BRAF VE (1).

Where two headings read alike, the source gives them in different places.

Sequence of A-Raf kinase (SEQ. ID No: 1) (P10398 other isoform, or with tags, fused parts or gaps Y301D (already in the parent)/Y302D (already in the parent)): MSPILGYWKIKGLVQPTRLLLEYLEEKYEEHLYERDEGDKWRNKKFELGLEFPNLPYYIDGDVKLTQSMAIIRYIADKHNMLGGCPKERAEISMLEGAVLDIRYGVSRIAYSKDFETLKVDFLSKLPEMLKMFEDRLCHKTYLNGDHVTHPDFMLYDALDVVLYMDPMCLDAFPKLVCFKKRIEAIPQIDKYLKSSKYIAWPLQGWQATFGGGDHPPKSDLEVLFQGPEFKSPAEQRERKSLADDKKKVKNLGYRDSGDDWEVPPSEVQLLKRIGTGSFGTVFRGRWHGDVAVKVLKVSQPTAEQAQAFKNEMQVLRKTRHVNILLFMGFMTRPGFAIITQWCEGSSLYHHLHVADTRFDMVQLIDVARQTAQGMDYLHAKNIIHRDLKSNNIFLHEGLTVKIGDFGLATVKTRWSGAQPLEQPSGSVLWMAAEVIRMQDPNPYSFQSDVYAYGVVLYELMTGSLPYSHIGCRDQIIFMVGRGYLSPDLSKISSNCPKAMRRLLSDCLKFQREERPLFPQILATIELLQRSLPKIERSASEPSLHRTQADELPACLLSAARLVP
Sequence of B-Raf (V600E) (SEQ. ID NO: 4) kinase (P15056 416-766 V600E): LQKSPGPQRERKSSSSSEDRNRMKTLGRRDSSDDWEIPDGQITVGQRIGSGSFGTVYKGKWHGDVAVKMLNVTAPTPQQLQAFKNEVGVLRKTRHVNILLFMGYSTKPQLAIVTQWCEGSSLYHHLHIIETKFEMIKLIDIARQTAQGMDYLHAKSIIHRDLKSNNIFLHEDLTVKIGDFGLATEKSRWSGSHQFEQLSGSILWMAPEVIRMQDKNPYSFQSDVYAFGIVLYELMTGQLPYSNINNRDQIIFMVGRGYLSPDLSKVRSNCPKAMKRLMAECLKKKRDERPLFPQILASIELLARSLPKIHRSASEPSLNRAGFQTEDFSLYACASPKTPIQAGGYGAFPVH
Sequence of B-Raf kinase (SEQ. ID NO: 2) (P15056 416-766): as the sequence (P15056 416-766 V600E) above, with E185V counted along it

For `CCOc1ncc(-c2cc(NC(=O)c3ccnc(C(F)(F)F)c3)ccc2C)cc1-c1ccnc(C(=O)NC)c1` [Example 69], the IC50 in assay [1] (setting [4]) was 1 to 10 µM; in assay [2] (setting [5]) it was 0.1 to 0.5 µM; in assay [3] (setting [6]) it was at most 0.1 µM; with H2405 cells, 0.1 to 0.5 µM.

For the compound `CNC(=O)c1cc(-c2cc(-c3cc(NC(=O)c4ccnc(C(F)(F)F)c4)cnc3C)ccn2)ccn1` [Example 42], the IC50 was 1 to 10 µM in assay [1] (setting [4]), 0.1 to 0.5 µM in assay [2] (setting [5]), at most 0.1 µM in assay [3] (setting [6]) and 0.5 to 1 µM in the assay on H2405 cells.

Take `COC(=O)Nc1cc(-c2ccnc(-c3cc(NC(=O)c4ccnc(C(C)(C)F)c4)ccc3C)n2)ccn1` [Example 403]: the IC50 in assay [1] (setting [7]) is 1 to 10 µM; in assay [2] (setting [8]), at most 0.1 µM; in assay [3] (setting [9]), at most 0.1 µM; in the assay on H2405 cells it was 0.1 to 0.5 µM.

As for `Cc1ccc(NC(=O)c2ccnc(C(C)(C)C#N)c2)cc1-c1cccc(-c2cc(NC(=O)C3CC3)ncn2)c1` [Example 77], the IC50 was 1 to 10 µM in assay [1] (setting [4]), at most 0.1 µM in assay [2] (setting [5]), at most 0.1 µM in assay [3] (setting [6]) and at most 0.1 µM with H2405 cells.

As for `CC(=O)Nc1cc(-c2cc(-c3cc(NC(=O)c4ccnc(C(F)(F)F)c4)ccc3C)nc(N(C)C)n2)ccn1` [Example 41, N-(3-(6-(2-acetamidopyridin-4-yl)-2-(dimethylamino)pyrimidin-4-yl)-4-methylphenyl)-2-(trifluoromethyl)isonicotinamide], the IC50 is 1 to 10 µM in assay [1] (setting [4]), at most 0.1 µM in assay [2] (setting [5]), at most 0.1 µM in assay [3] (setting [6]) and at most 0.1 µM in the assay with H2405 cells.

`CNC(=O)c1cc(-c2ccnc(-c3cc(NC(=O)c4ccnc(C(C)(C)C#N)c4)ccc3C)c2)ccn1` [Example 376]: the IC50 is 1 to 10 µM in assay [1] (setting [7]), 0.1 to 0.5 µM in assay [2] (setting [8]), at most 0.1 µM in assay [3] (setting [9]) and 0.1 to 0.5 µM with H2405 cells.

With `CNC(=O)c1cc(-c2cc(-c3cc(NC(=O)c4ccnc(C(F)F)c4)ccc3C)ccn2)ccn1` [Example 48], the IC50 in assay [1] (setting [4]) is 1 to 10 µM; in assay [2] (setting [5]), at most 0.1 µM; in assay [3] (setting [6]), at most 0.1 µM; with H2405 cells, 0.1 to 0.5 µM.

`Cc1ccc(NC(=O)c2cnn(CC(F)(F)F)c2)cc1-c1cncc(-c2ccnc(C(N)=O)c2)c1` [Example 381]: the IC50 in assay [1] (setting [7]) lay in the range of 1 to 10 µM; in assay [2] (setting [8]) it was 0.1 to 0.5 µM; in assay [3] (setting [9]), 0.1 to 0.5 µM; in the assay on H2405 cells it was 1 to 10 µM.

Turning to `CCOc1ncc(-c2cc(NC(=O)c3ccnc(C(F)(F)F)c3)ccc2C)cc1-c1ccnc(NC(C)=O)c1` [Example 68], the IC50 is 1 to 10 µM in assay [1] (setting [4]), at most 0.1 µM in assay [2] (setting [5]), at most 0.1 µM in assay [3] (setting [6]) and 0.1 to 0.5 µM in the assay with H2405 cells.

Take `Cc1ccc(NC(=O)c2cc(C3CC3)n(C)n2)cc1-c1cc(-c2ccnc(NC(=O)C3CC3)c2)cnn1` [Example 377]: the IC50 in assay [1] (setting [7]) is 1 to 10 µM; in assay [2] (setting [8]), at most 0.1 µM; in assay [3] (setting [9]), at most 0.1 µM; in the assay on H2405 cells, 0.1 to 0.5 µM.

Consider `CNC(=O)c1cc(-c2cc(-c3cc(NC(=O)c4cccc(C(F)(F)F)c4)cnc3C)ccn2)ccn1` [Example 52], for which the IC50 in assay [1] (setting [4]) is 1 to 10 µM; in assay [2] (setting [5]), 0.1 to 0.5 µM; in assay [3] (setting [6]), at most 0.1 µM; in the assay on H2405 cells, at most 0.1 µM.

As to `COC(=O)Nc1cc(-c2cncc(-c3cc(NC(=O)c4ccnc(C(C)(C)F)c4)c(F)cc3C)c2)ccn1` [Example 384], the IC50 in assay [1] (setting [7]) was 1 to 10 µM; in assay [2] (setting [8]), at most 0.1 µM; in assay [3] (setting [9]) it was at most 0.1 µM; in the assay on H2405 cells, 0.1 to 0.5 µM.
